According to ChEMBL document CHEMBL5291721, “A preclinical secondary pharmacology resource illuminates target-adverse drug reaction associations of marketed drugs” (Nat Commun, 2023):

Columns and labels:
[1] = target: T1, Progesterone receptor (Homo sapiens, UniProt P06401); format: functional
T1 sequence (P06401 whole entry): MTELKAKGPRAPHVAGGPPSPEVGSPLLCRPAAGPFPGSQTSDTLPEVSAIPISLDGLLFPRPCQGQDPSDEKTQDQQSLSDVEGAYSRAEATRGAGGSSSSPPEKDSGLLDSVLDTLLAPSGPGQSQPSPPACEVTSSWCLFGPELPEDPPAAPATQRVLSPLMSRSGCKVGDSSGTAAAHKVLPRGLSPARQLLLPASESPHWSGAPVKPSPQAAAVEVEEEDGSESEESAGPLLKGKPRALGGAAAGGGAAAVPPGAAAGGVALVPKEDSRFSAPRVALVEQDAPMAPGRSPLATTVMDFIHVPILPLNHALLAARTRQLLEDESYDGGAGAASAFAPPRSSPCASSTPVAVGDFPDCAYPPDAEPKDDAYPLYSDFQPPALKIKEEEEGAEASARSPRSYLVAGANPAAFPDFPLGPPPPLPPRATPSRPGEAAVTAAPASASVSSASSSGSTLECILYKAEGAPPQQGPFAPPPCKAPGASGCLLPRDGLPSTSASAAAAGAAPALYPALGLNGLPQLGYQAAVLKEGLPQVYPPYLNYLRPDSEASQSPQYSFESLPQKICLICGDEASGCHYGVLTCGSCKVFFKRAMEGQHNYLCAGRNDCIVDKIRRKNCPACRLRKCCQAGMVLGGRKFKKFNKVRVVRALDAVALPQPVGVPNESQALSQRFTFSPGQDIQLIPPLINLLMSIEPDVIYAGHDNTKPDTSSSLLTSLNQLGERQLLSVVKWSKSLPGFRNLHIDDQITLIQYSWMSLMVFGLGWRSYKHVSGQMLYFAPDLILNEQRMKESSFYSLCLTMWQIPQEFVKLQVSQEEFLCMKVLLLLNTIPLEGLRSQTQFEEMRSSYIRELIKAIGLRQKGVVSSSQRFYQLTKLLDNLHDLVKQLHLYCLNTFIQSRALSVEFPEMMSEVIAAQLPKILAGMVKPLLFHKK

[2] = target: Voltage-gated inwardly rectifying potassium channel KCNH2 (Homo sapiens, UniProt Q12809); format: functional
[3] = target: T2, Alpha-2A adrenergic receptor (Homo sapiens, UniProt P08913); format: functional, cell-based
T2 sequence (P08913 whole entry): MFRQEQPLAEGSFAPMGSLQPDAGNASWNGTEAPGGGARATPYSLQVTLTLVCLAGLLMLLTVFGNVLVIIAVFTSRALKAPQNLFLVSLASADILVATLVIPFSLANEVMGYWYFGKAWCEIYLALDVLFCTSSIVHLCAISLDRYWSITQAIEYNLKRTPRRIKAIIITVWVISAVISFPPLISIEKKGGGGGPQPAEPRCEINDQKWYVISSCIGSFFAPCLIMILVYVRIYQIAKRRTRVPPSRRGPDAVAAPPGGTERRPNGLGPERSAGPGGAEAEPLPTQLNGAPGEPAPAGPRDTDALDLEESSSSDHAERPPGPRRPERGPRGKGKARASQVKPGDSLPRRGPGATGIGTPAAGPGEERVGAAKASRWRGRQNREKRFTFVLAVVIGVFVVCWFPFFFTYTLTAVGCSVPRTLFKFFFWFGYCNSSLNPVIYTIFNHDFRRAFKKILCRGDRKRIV

[4] = target: T3, 5-hydroxytryptamine receptor 3A (Homo sapiens, UniProt P46098); format: functional
T3 sequence (P46098 whole entry): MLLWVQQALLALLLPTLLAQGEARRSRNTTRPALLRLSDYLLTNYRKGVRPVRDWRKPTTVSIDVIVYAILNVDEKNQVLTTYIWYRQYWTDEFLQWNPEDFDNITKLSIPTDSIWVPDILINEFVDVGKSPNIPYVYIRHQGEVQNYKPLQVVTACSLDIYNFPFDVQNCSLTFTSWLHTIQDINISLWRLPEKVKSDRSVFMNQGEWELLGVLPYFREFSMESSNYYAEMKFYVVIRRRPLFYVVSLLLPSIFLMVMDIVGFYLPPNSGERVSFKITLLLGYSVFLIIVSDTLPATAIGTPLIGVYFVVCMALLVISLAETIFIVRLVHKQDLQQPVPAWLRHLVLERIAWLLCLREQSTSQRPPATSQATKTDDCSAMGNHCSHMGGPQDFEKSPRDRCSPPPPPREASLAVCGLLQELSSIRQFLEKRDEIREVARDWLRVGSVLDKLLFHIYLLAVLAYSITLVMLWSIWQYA

[5] = target: T4, Muscarinic acetylcholine receptor M2 (Homo sapiens, UniProt P08172); format: functional, cell-based
T4 sequence (P08172 whole entry): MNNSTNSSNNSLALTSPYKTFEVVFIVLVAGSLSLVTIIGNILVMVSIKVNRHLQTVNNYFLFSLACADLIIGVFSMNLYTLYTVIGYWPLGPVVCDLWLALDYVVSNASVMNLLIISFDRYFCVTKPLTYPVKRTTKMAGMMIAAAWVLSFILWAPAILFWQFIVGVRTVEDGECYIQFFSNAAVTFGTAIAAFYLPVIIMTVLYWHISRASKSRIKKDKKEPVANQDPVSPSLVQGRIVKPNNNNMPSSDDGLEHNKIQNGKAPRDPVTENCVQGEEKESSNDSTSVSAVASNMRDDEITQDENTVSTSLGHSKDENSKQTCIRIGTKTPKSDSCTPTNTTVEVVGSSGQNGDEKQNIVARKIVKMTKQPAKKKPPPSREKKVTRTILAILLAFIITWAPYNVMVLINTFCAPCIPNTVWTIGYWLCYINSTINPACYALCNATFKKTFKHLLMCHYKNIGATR

[6] = target: Mu-type opioid receptor (Homo sapiens, UniProt P35372); assay: biochemical; format: functional
[7] = target: T5, Cholecystokinin receptor type A (Homo sapiens, UniProt P32238)
T5 sequence (P32238 whole entry): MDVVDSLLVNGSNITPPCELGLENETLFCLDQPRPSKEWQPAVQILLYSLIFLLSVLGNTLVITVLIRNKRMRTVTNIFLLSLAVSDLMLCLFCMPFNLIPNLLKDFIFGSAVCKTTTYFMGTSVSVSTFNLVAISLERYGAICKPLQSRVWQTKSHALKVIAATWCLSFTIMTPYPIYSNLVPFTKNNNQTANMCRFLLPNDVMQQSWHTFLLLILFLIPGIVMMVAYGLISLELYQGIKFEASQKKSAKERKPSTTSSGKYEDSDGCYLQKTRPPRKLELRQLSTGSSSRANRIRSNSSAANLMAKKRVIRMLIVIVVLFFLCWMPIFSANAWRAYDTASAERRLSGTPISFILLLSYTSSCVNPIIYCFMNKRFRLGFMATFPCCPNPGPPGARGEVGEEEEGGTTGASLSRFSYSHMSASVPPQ
Note: assay procedure not described here.

Chain of Mu-type opioid receptor (P35372 whole entry): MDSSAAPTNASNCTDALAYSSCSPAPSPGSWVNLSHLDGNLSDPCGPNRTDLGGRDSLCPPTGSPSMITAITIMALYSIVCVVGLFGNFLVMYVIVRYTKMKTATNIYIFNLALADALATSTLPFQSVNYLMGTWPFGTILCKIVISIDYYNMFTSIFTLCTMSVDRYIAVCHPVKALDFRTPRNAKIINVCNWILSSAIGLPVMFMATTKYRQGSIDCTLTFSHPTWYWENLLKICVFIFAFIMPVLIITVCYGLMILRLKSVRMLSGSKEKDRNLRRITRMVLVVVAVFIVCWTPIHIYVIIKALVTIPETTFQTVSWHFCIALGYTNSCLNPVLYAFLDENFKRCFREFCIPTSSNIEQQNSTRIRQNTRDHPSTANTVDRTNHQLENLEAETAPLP
Chain of Voltage-gated inwardly rectifying potassium channel KCNH2 (Q12809 whole entry): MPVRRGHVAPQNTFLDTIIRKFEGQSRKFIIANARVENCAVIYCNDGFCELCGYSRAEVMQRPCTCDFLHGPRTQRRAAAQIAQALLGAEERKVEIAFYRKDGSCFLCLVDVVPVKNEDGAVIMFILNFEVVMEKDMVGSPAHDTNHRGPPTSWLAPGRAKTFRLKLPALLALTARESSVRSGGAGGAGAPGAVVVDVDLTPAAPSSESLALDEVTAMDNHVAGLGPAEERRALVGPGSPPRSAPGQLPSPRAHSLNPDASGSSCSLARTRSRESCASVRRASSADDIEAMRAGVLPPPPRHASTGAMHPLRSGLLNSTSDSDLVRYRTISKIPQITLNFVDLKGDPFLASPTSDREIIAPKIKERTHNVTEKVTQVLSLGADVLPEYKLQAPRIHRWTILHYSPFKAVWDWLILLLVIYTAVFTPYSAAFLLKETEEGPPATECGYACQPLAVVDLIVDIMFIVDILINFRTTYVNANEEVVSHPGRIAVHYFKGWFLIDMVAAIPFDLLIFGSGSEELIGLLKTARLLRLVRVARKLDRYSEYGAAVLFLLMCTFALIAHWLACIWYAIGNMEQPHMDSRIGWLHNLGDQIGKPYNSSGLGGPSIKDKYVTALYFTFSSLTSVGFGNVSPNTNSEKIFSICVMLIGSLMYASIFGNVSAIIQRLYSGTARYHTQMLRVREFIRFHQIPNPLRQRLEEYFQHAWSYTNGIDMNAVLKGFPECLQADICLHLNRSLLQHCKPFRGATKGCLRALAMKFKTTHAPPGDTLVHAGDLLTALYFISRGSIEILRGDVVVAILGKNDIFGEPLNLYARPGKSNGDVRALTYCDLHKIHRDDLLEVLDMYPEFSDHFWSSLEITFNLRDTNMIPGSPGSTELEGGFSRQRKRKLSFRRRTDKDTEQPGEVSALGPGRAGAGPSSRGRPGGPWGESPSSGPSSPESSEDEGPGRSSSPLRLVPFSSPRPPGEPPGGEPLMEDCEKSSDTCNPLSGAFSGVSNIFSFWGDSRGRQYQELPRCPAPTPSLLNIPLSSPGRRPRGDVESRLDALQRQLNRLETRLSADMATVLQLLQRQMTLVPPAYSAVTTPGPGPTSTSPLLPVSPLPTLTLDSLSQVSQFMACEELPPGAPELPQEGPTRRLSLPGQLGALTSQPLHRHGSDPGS

SMILES	AC50 [1] [µM]	AC50 [2] [µM]	AC50 [3] [µM]	AC50 [4] [µM]	AC50 [5] [µM]	AC50 [6] [µM]	AC50 [7] [µM]
CC(=O)O[C@H](CC(=O)[O-])C[N+](C)(C)C [ACETYLCARNITINE]	> 30	> 30	> 30	> 30	> 30	> 30	> 30
O=C(O)c1ccccc1Nc1cc(Cl)ccc1C(=O)O [LOBENZARIT]	> 30	> 30	> 30	> 30	> 30	> 30	> 30
C=C[C@@]1(C)CC(=O)[C@]2(O)[C@@]3(C)[C@@H](O)CCC(C)(C)[C@@H]3[C@H](O)[C@H](OC(C)=O)[C@@]2(C)O1 [COLFORSIN]	> 30	> 30	> 30	> 30	11	> 30	> 30
CCN(CC)C(=O)Nc1ccc(OCC(O)CNC(C)(C)C)c(C(C)=O)c1 (stereo unspecified) [CELIPROLOL]	> 30	17	> 30	> 30	> 30	> 30	> 30
CCN(CC)CCNC(=O)c1cc(S(C)(=O)=O)ccc1OC [TIAPRIDE]	> 30	8.5	> 30	> 30	> 30	> 30	> 30
NC1CCN(c2nc3c(cc2F)c(=O)c(C(=O)O)cn3-c2ccc(F)cc2F)C1 (stereo unspecified) [TOSUFLOXACIN]	> 30	> 30	> 30	> 30	> 30	> 30	> 30
CC1=C(C)C(=O)C(C(CCCCCC(=O)O)c2ccccc2)=C(C)C1=O (stereo unspecified) [SERATRODAST]	> 30	> 30	> 30	> 30	> 30	> 30	> 30
C[N@+]1(CCF)[C@@H]2CC[C@H]1C[C@@H](OC(=O)C(O)(c1ccccc1)c1ccccc1)C2	> 30	2.38	> 30	> 30	0.0145	> 30	> 30
O=C1CN=C(c2ccccc2)c2cc([N+](=O)[O-])ccc2N1 [NITRAZEPAM]	> 10	> 30	> 10	> 30	> 10	> 30	> 10
NC(=O)CN1CCCC1=O	> 30	> 30	> 30	> 30	> 30	> 30	> 30
CC(=O)SC[C@@H](C)C(=O)N1CCC[C@H]1C(=O)N[C@@H](Cc1ccccc1)C(=O)O	> 30	> 30	> 30	> 30	> 30	> 30	> 30
O=C(O)CCNC(=O)c1ccccc1 [BETAMIPRON]	> 30	> 30	> 30	> 30	> 30	> 30	> 30
CCCCCCCCCCCCCCCCCCCCCC(=O)Nc1ccn([C@@H]2O[C@H](CO)[C@@H](O)[C@@H]2O)c(=O)n1 [ENOCITABINE]	> 30	> 30	> 30	> 30	> 30	> 30	> 30
